Consider six molecules from PubChem BioAssay AID1053200 (The Scripps Research Institute Molecular Screening Center, 2014).

Activity calls are given as the source filed them.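 How the source made its calls: active means inhibition at or above 50% when tested at 10 µM; inactive means inhibition below 50% at 10 µM.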

This experiment deals with Methionine--tRNA ligase, mitochondrial (Homo sapiens) (UniProt Q96GW9). As to the kind of experiment: human mitochondrial MetRS inhibition, late-stage follow-up, selectivity assay for T. brucei MetRS inhibitor project, biochemical, radioactivity, round 2 (AID 1053200). The following applies: recombinant human mitochondrial MetRS, [3H]Met aminoacylation, stronger effect = higher value.
Methionine--tRNA ligase, mitochondrial (Homo sapiens), sequence (Q96GW9 whole entry, looked up): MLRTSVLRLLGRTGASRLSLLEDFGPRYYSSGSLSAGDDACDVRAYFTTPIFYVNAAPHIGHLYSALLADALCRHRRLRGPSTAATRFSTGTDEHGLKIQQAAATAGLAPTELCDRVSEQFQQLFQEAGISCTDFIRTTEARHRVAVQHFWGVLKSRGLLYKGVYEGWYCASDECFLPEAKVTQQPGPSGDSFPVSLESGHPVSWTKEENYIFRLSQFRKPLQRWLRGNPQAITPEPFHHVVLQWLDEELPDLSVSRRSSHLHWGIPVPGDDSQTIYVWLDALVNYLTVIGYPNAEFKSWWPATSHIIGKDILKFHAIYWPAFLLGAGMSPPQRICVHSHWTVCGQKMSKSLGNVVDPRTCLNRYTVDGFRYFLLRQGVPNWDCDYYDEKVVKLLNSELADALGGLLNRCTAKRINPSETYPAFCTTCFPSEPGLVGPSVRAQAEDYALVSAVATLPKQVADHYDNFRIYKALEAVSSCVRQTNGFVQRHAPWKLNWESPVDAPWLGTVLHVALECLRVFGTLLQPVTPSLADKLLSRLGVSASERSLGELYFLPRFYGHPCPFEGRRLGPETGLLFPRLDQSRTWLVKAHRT

Turning to `CCN(CC)C(=O)C(=O)c1cn(CC(=O)Nc2cc(Oc3ccccc3)cc(C(F)(F)F)c2)c2ccccc12`, the inhibition is 21.1% (inactive) (at 10 µM) and -2.76% (inhibition, at 1 µM).

As to `CCN(CC)C(=O)C(=O)c1cn(CC(=O)Nc2cc(Cl)cc(C(F)(F)F)c2)c2ccccc12`, the inhibition is 17.4% (inactive) (at 10 µM) and -6.78% (inhibition, at 1 µM).

On to `CCN(CC)C(=O)C(=O)c1cn(CC(=O)Nc2cc(C(F)(F)F)cc(C(F)(F)F)c2)c2ccccc12`, for which the inhibition by setting is: (at 10 µM) 9.77% (inactive); (inhibition, at 1 µM) -3.97%.

For `CCN(CC)C(=O)C(=O)c1cn(CC(=O)Nc2cccc(C(F)(F)F)c2)c2cc(OC)ccc12`, the inhibition (at 10 µM) was -1.37% (inactive) and the inhibition (inhibition, at 1 µM) is -8.82%.

Regarding `CCN(CC)C(=O)C(=O)c1cn(CC(=O)Nc2cc(Br)cc(C(F)(F)F)c2)c2ccccc12`, the inhibition was 12.8% (inactive) (at 10 µM) and -17.3% (inhibition, at 1 µM).

Regarding `CCN(CC)C(=O)C(=O)c1cn(CC(=O)Nc2cc(C)cc(C(F)(F)F)c2)c2ccccc12`, the inhibition by setting is: (at 10 µM) 20.9% (inactive); (inhibition, at 1 µM) -1.02%.

As a reminder, the inhibition is the relative decrease from the control value, in per cent.
